The values below come from patent US20180256515A1, “ORAL AMPHETAMINE COMPOSITION” (Adare Pharmaceuticals, Inc., priority 2017, published 2018).

The data set in a line: Water solubility (statement).

Counter-ions that a name gives are not always drawn. Like-named read-outs stand apart in the source and are kept apart here.

Turning to `CC(N)Cc1ccccc1` (racemic) [Amphetamine sulfate, racemic amphetamine sulfate], the solubility result is “freely soluble”. In addition, for the setting “listed as Racemic amphetamine sulfate”, the solubility entry is “freely water soluble”.
